Test results published in ChEMBL document CHEMBL1137205, “Rational approaches to discovery of orally active and brain-penetrable quinazolinone inhibitors of poly(ADP-ribose)polymerase” (J Med Chem, 2004).

What was measured:
[1] = biological target: Poly [ADP-ribose] polymerase 1 (Homo sapiens, UniProt P09874); assay: In vitro inhibitory concentration against human recombinant Poly (ADP-ribose) polymerase 1
[2] = Concentration in brain tissue was measured at 2 hrs in mice following po administration of 32 mg/kg; type: ADME, organism-based; parameters: dose 32 mg/kg, route oral; details: mouse
[3] = Concentration in brain tissue was measured at 0.5 hrs in mice following po administration of 32 mg/kg; type: ADME, organism-based; parameters: dose 32 mg/kg, route oral; details: mouse
[4] = Concentration in plasma was measured at 0.5 hrs in mice following po administration of 32 mg/kg; type: ADME, organism-based; parameters: dose 32 mg/kg, route oral; details: mouse
[5] = Concentration in plasma was measured at 2 hrs in mice following po administration of 32 mg/kg; type: ADME, organism-based; parameters: dose 32 mg/kg, route oral; details: mouse
[6] = Concentration in brain tissue was measured at 0.5 hrs in mice following ip administration of 32 mg/kg; type: ADME, organism-based; parameters: dose 32 mg/kg, route intraperitoneal; details: mouse
[7] = Ratio of brain tissue concentration to that of plasma concentration; type: ADME; details: mouse; for Kp: brain / plasma
[8] = Concentration in plasma was measured at 0.5 hrs in mice following ip administration of 32 mg/kg; type: ADME, organism-based; parameters: dose 32 mg/kg, route intraperitoneal; details: mouse
[9] = AUC value in dog after po administration of 1.0 mg/kg; type: ADME, organism-based, Canis lupus familiaris, Plasma; parameters: dose 1 mg/kg, route oral; details: in vivo
[10] = Clearance of compound in rat after iv administration of 10 mg/kg; type: ADME, organism-based; parameters: dose 10 mg/kg, route intravenous; details: in vivo
[11] = Clearance in human liver microsomes when incubated at 37 degree Celsius in the presence of NADPH-generating system
[12] = Clearance in mouse liver microsomes when incubated at 37 degree Celsius in the presence of NADPH-generating system
[13] = Clearance in dog liver microsomes when incubated at 37 degree Celsius in the presence of NADPH-generating system
[14] = Half-life in rat after iv administration of 10 mg/kg; type: ADME, organism-based; parameters: dose 10 mg/kg, route intravenous; details: in vivo
[15] = Cmax value in mouse after po administration of 10 mg/kg; type: ADME, organism-based; parameters: dose 10 mg/kg, route oral; details: in vivo
[16] = Cmax value in dog after po administration of 1.0 mg/kg; type: ADME, organism-based, Canis lupus familiaris; parameters: dose 1 mg/kg, route oral; details: in vivo
[17] = Half-life in dog after iv administration of 1.0 mg/kg; type: ADME, organism-based, Canis lupus familiaris; parameters: dose 1 mg/kg, route intravenous; details: in vivo
[18] = Clearance of compound in dog after iv administration of 1.0 mg/kg; type: ADME, organism-based, Canis lupus familiaris; parameters: dose 1 mg/kg, route intravenous; details: in vivo
[19] = Bioavailability in rat after iv administration of 10 mg/kg; type: ADME, organism-based; details: in vivo, read-out: Bioavailabiility
[20] = Cmax value in rat after po administration of 10 mg/kg; type: ADME, organism-based; parameters: dose 10 mg/kg, route oral; details: in vivo
[21] = AUC value in rat after po administration of 10 mg/kg; type: ADME, organism-based, Plasma; parameters: dose 10 mg/kg, route oral; details: in vivo
[22] = Bioavailability in dog after iv administration of 1.0 mg/kg; type: ADME, organism-based, Canis lupus familiaris; details: in vivo, read-out: Bioavailabiility
[23] = Clearance in rat liver microsomes when incubated at 37 degree Celsius in the presence of NADPH-generating system

Poly [ADP-ribose] polymerase 1, sequence (P09874 whole entry): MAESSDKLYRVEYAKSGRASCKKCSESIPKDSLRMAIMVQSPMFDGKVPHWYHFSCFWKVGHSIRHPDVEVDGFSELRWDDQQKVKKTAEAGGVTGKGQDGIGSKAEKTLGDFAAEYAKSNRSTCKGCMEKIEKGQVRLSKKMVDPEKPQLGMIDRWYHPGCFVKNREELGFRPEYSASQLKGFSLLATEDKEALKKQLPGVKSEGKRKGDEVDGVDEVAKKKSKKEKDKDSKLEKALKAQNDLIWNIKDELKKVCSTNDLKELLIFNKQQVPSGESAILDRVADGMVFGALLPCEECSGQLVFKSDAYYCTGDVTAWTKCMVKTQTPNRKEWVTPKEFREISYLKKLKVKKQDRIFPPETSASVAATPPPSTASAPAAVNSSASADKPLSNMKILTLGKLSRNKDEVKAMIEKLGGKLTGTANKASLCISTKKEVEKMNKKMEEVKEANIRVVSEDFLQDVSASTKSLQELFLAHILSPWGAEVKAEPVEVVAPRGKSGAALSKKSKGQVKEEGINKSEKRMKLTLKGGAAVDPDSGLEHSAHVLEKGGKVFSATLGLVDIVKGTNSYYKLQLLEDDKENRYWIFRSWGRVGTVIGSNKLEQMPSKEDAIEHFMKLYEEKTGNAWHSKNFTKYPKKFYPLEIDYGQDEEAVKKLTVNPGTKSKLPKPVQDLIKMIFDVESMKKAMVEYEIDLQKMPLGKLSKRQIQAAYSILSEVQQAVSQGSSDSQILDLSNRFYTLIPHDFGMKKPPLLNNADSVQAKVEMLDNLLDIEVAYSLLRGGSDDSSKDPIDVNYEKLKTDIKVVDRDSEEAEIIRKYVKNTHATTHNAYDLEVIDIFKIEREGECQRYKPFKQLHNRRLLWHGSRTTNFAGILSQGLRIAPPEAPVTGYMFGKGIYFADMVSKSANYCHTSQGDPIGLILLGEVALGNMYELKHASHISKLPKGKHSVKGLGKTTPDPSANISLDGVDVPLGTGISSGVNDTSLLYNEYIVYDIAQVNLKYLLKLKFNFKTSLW

Compound | IC50 [1] [nM] | concentration at 2 h [2] [ng/g] | concentration at 0.5 h [3] [ng/g] | concentration at 0.5 h [4] [ng/mL] | concentration at 2 h [5] [ng/mL] | also measured
O=c1[nH]c(CCCN2CC=C(c3ccc(O)cc3)CC2)nc2ccccc12 | 12 |  |  |  |  | 
O=c1[nH]c(CCCN2CCC(c3ccccc3)CC2)nc2ccccc12 | 46 | 100 | 370 | 250 |  | 
Oc1nc(CCCN2CC=C(c3ccccc3)CC2)nc2ccc(Cl)cc12 | 27 | 14200 | 18600 | 16200 | 15500 | 
COc1ccccc1C1=CCN(CCCc2nc(O)c3ccccc3n2)CC1 | 170 |  |  |  |  | 
Oc1nc(CCCN2CC=C(c3ccc(-c4ccccc4)cc3)CC2)nc2ccccc12 | 34 |  |  |  |  | 
Oc1nc(CCCN2CC=C(c3ccccc3)CC2)nc2cc(Cl)ccc12 | 250 | 2660 | 6120 | 80 | 510 | 
Oc1nc(CCCN2CC=C(c3ccc(-[n+]4ccccc4)cc3)CC2)nc2ccccc12 | 12 | 300 | 2760 | 14100 | 620 | 
O=c1[nH]c(CCCN2CC=C(c3ccccc3)CC2)nc2c(Cl)cccc12 | 26 | 8430 | 7990 | 1280 | 1200 | 
O=c1[nH]c(CCCN2CC=C(c3ccc(F)cc3)CC2)nc2ccccc12 | 8.9 | 1160 | 3540 | 6830 | 3480 | 
Oc1nc(CCCN2CCC3=C(CCc4ccccc43)C2)nc2ccccc12 | 12 |  |  |  |  | 
O=c1[nH]c(CCCC2CC=C(c3ccccc3)CC2)nc2ccccc12 (stereo not given) | > 1000 |  |  |  |  | 
O=c1[nH]c(CCCN2CC=C(c3ccc(Cl)cc3)CC2)nc2ccccc12 | 23 | 9410 | 23900 | 12100 | 2780 | 
O=c1[nH]c(CCCN2CC=C(c3ccccc3)CC2)nc2c(Cl)cc(Cl)cc12 | 39 |  |  |  |  | 
O=c1[nH]c(CCCN2CC=C(c3ccccc3)CC2)nc2ccccc12 | 16 | 370 | 1900 | 680 | 150 | 
Oc1nc(CCCN2CCc3c([nH]c4ccccc34)C2)nc2ccccc12 | 74 | 150 | 580 | 77200 | 9510 | 
Oc1nc(CCCN2CC=C(c3ccccc3F)CC2)nc2ccccc12 | 37 |  |  |  |  | 
Cc1ccc(C2=CCN(CCCc3nc(O)c4ccccc4n3)CC2)cc1 | 17 | 2340 | 5310 | 5400 | 840 | 
CCc1cccc2c(O)nc(CCCN3CC=C(c4ccccc4)CC3)nc12 | 66 |  |  |  |  | 
Cc1cccc2c(=O)[nH]c(CCCN3CC=C(c4ccccc4)CC3)nc12 | 14 | 730 | 2540 | 940 | 400 | 
Oc1nc(CCCN2CC=C(c3ccccc3)CC2)nc2cccc(F)c12 |  | 220 | 1620 | 370 | 140 | 
COc1ccc(C2=CCN(CCCc3nc(O)c4ccccc4n3)CC2)cc1 | 8.3 | 3750 | 5610 | 6050 | 1670 | 
O=c1[nH]c(CCCN2CC=C(c3cccc(F)c3)CC2)nc2ccccc12 | 23 |  |  |  |  | 
N#Cc1ccc(C2=CCN(CCCc3nc(O)c4ccccc4n3)CC2)cc1 | 6 | 540 | 4500 | 20000 | 5200 | 
O=c1[nH]c(CCCN2CC=C(c3ccc(C(F)(F)F)cc3)CC2)nc2ccccc12 | 25 | 19500 | 23400 | 6800 | 3270 | 
O=c1[nH]c(CCCN2CC=C(c3ccccc3)CC2)nc2cccc(Cl)c12 | 65 | 2820 | 4600 | 4180 | 2170 | concentration at 0.5 h [6]: 7000 ng/g; Kp [7]: 5.8; concentration at 0.5 h [8]: 1200 ng/mL
O=c1[nH]c(CCCN2CC=C(c3ccc(F)cc3)CC2)nc2c(Cl)cccc12 | 13 | 2100 | 5600 | 1000 | 500 | AUC [9]: 3.16 µg/h/mL; clearance [10]: 13.5 mL/min/kg; Kp [7]: 5.6; Ratio ([7]; plasma): 4.2; CLint scaled [11]: 156 mL/min/kg; CLint scaled [12]: 2250 mL/min/kg; CLint scaled [13]: 141 mL/min/kg; half-life [14]: 1.4 h; Cmax [15]: 300 ng/mL; Cmax [16]: 280 ng/mL; half-life [17]: 6 h; clearance [18]: 4.8 mL/min/kg; bioavailability [19]: 20%; Cmax [20]: 1330 ng/mL; AUC [21]: 2.52 µg/h/mL; bioavailability [22]: 70%; CLint scaled [23]: 1240 mL/min/kg
Oc1nc(CCCN2CCN(c3ccccc3)CC2)nc2ccccc12 |  | 300 | 2850 | 2270 | 530 | 
Cc1nc2cccc(Cl)c2c(=O)[nH]1 |  |  |  |  |  | concentration at 0.5 h [6]: 5500 ng/g; Kp [7]: 0.82; concentration at 0.5 h [8]: 6700 ng/mL
COc1cccc2c(=O)[nH]c(CCCN3CC=C(c4ccccc4)CC3)nc12 | 26 |  | 1150 | 240 |  | 
O=c1[nH]c(=O)n(CCCCN2CC=C(c3ccccc3)CC2)c2cccc(F)c12 |  |  |  |  |  | concentration at 0.5 h [6]: 600 ng/g; Kp [7]: 0.86; concentration at 0.5 h [8]: 700 ng/mL
